pEC50, pKd: −log10 of the molar value.
What was measured:
[1] = molecular target: T1, human IL2 receptor alpha (CD25) (Homo sapiens, UniProt P01589); test: Surface plasmon resonance binding to IL-2R alpha monomer subunit; conditions: SPR
T1 construct: purchased Abcam Ab221397
T1 sequence (P01589 22-272): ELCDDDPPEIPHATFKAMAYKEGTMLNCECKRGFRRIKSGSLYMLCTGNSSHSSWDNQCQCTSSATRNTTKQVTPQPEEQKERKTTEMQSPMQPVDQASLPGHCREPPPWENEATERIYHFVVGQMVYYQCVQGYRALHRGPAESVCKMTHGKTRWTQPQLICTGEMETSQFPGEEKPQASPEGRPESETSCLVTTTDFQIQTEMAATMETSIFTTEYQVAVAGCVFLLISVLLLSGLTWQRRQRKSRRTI
Experimental: (§1) The interaction of the IL-2 polypeptides with human IL-2 receptor subunits were measured with Surface Plasmon Resonance (SPR) technology at Crelux, a Wuxi AppTec company, Martinsried, GER. For these studies, anti-His antibodies were bound by amine coupling onto a CMS chip to capture 42 nM of His tagged human IL2 receptor alpha (Abcam, Ab221397) or of His tagged human IL2 receptor beta (Abcam, Ab174003). In other settings, 42 nM of alpha and beta IL2 receptors were mixed and pre-incubated for 30 min before capture of the alpha/beta heterodimer IL2 receptor.
(§2) Regeneration of the surface back to amine coupled anti His antibody was done after every concentration of analyte. To measure the protein association to the receptors, the samples were injected with a flow rate of 50 ul/min for 30 s, followed by 180s buffer only to detect the dissociation. The used running buffer was 1×PBS with 0.05% Tween20. The relative response units (RU, Y-axis) are plotted against time (s, X-axis) and analyzed in a kinetic 1:1 binding model for the monomer receptor binding and with a kinetic heterogenous ligand fit model for the alpha/beta heterodimer binding.
NT indicates the IL-2 polypeptide as not tested.

[2] = mouse, in vivo, iv, 0.8 mg/kg
Experimental: A single-dose pharmacokinetic/pharmacodynamic experiment was performed in mice. Naïve, 6-8 weeks old, C57Bl/6 mice (Shanghai SLAC Laboratory Animal Co., LTD, Shanghai, China) received a single bolus intravenous (i.v.) injection of 52 nmoles/kg wild type or of modified IL-2 polypeptides. […] At indicated time points, blood samples were collected in the presence of EDTA either via tail vein sampling or via cardiac puncture (end-point).
Blood samples were immediately processed by centrifugation. Plasma samples were cryopreserved at −80° C. until bioanalysis.
Bioanalysis of plasma samples was performed using a qualified human IL-2 LegendPlex bead assay (Biolegend, #740717, #740368, #740758). Concentrations of wild type and of modified IL-2 polypeptides and the internal standard in samples derived from plasma were determined using human IL-2 LegendPlex bead assay. PK data were subjected to a non-compartmental pharmacokinetic analysis by using the Phoenix WinNonlin software (version 6.3, Pharsight, Mountain View, CA). The linear/log trapezoidal rule was applied in obtaining the PK parameters.
The PK parameters were determined by means of non-compartmental analysis (NCA) using R package “PK”. The area under plasma concentration-time curves (AUC0-last) were calculated using the linear trapezoidal rule on the arithmetic means at the different time points while the extrapolation necessary for the AUC0-inf and AUMC 0-Inf was achieved assuming an exponential decay on the last 3 time points.

CD8 Teff cells (CD8+) = test: pStat5 induction in human primary pan T-cells, CD8 Teff subset; type: cell-based
Experimental: (§3) An experiment was performed to determine the effect of various IL-2 polypeptides on human T-cell populations. Primary pan T-cells (CD4+, CD8+ and Tregs T cells) were obtained from healthy donor buffy coat by peripheral blood mononuclear cell (PBMC) purification using ficoll gradient centrifugation followed by negative selection with magnetic beads and then cryopreserved until use. […] After incubation, cells were fixed and permeabilized using the Transcription Factor Phospho Buffer kit followed by a surface and intracellular immunostaining for CD4, CD8, CD25, FoxP3, CD45RA and pStat5 to enable cell subset identification and measurement of Stat5 (signal transducer and activator of transcription 5) phosphorylation levels. The FACS (fluorescence activated cell sorting) measurement was done either with a NovoCyte or a Quanteon Flow Cytometer from Acea.
(§4) pStat5 MFI ([…] fluorescence intensity) signals for the T-cell subsets shown in Table 12 were plotted against concentrations of aldesleukin or of modified IL-2 polypeptides. Half maximal effective concentration (EC50) was calculated based on a variable slope, four parameter analysis using GraphPad PRISM software.

[3] = test system: Tregs (CD4+, FoxP3+, CD25Hi); test: Single-dose pharmacodynamics in mice, Tregs (pSTAT5, Ki67, frequency); type: in vivo, C57Bl/6 mice; conditions: for Tregs % of pSTAT5 positive cells / Ratio Tregs/CD8+: 1 h after injection; for Ratio Tregs/CD8+: pSTAT5 positive cells
Experimental: (§5) Cell pellets were treated with 1×Lyse/Fix buffer (BD Bioscience, 558050) during 10 min. […] Cells were then permeabilized using cold BD Perm Buffer III and stained with antibodies against either Ki67, Siglec-F, CD4, CD8, FoxP3, CD62L, CD44 or pSTAT5. The FACS (fluorescence activated cell sorting) measurement was done with a Fortessa X-20 Flow Cytometer from BD. For each cell subset indicated below in Table 14, the percentage of pSTAT5 positive cells, and percentage of Ki67 positive cells, cell counts, and cell frequency was determined. [table]

[4] = molecular target: T2, alpha/beta heterodimer IL2 receptor (Homo sapiens, UniProt P14784); test: Surface plasmon resonance binding to IL2R alpha/beta heterodimer
T2 construct: purchased Abcam Ab221397; Ab174003
T2 sequence (P14784 27-239 limits assumed): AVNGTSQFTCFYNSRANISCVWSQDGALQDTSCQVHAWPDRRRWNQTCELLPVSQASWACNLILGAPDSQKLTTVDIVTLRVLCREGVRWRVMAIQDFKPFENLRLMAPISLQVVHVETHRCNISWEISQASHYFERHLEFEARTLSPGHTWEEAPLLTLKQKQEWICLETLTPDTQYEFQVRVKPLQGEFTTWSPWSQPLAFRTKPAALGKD
Experimental: as §1, §2
Additional surface plasmon resonance experiments were performed to determine the binding characteristics of the modified IL-2 polypeptides with IL2R alpha/beta heterodimers. The experiments were performed as indicated above, but the monomeric subunits were replaced with the IL2R heterodimers. […] In the table below, NT indicates the composition was not tested.
The secondary interactions between IL-2R heterodimers and the modified IL-2 polypeptides were also measured. […] In the table below, NT indicates the composition was not tested.

[5] = molecular target: T3, human IL2 receptor beta (CD122) (Homo sapiens, UniProt P14784); test: Surface plasmon resonance binding to IL-2R beta monomer subunit; conditions: SPR
T3 construct: purchased Abcam Ab174003
T3 sequence (P14784 27-551): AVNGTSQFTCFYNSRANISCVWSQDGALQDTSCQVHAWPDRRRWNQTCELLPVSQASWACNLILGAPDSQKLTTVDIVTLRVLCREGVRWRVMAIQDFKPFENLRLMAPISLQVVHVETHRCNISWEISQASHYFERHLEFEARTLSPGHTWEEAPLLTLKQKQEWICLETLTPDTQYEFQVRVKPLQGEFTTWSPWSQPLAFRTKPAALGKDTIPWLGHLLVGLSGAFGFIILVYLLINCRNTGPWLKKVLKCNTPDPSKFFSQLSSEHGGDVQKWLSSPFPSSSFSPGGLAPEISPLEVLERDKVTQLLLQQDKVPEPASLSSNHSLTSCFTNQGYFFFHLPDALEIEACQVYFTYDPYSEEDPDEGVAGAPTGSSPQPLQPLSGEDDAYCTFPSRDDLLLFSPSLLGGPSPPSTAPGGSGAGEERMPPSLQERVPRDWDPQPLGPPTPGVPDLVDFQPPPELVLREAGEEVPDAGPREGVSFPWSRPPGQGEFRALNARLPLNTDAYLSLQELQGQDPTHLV
Experimental: as §1, §2
NT indicates the IL-2 polypeptide was not tested.

CD8+ Teff (CD3+, CD8+) = test: Single-dose pharmacodynamics in mice, CD8+ Teff (pSTAT5, Ki67, frequency); type: in vivo, C57Bl/6 mice; conditions: for CD8+ % of pSTAT5 positive cells: 1 h after injection
Experimental: as §5

[6] = test system: Treg cells (CD4+, CD25Hi, FoxP3+); test: pStat5 induction in human primary pan T-cells, T-Reg subset; type: cell-based
Experimental: as §3, §4

[7] = mice, 0.8 mg/kg, at peak time point

Ka ([1]; Alpha (CD25) monomer): 6.74e+06 M⁻¹ s⁻¹ | dissociation rate constant (koff) ([1]; Alpha (CD25) monomer): 0.154 s⁻¹ | pKd ([1]; read-out: observed Kd with IL-2Rα): 7.64 | pEC50 (CD8 Teff cells (CD8+); pStat5 MFI, 20 min to 40 min stimulation): 8.04 | Ka ([4]; primary interaction): 8.01e+06 M⁻¹ s⁻¹ | dissociation rate constant (koff, 1/s) ([4]; primary interaction): 0.00175 s⁻¹ | Ka ([4]; secondary interaction): 5.13e+06 M⁻¹ s⁻¹ | Ka ([5]; Beta (CD122) monomer): 319000 M⁻¹ s⁻¹ | koff (dissociation rate constant) ([5]; Beta (CD122) monomer): 0.289 s⁻¹ | pKd ([5]; as stated in text (FIG. 3), read-out: Kd, β subunit of the IL-2 receptor): ~6.05 | pEC50 ([6]; pStat5 MFI, 20 min to 40 min stimulation, read-out: Tregs EC50): 10.72
Substance: Aldesleukin: aldesleukin (SEQ ID NO: 2), comparator IL-2
AUC0-last [2]: 1227 ng·h/mL | AUCD [2]: 1534 (ng/mL*h)*(mg/kg) | Cl [2]: 10.85 mL/min/kg | MRTlast [2]: 36.6 min | T1/2 [2]: 20.8 min | CD8/Tregs (CD8 Teff cells (CD8+); ratio of CD8+ EC50 to Tregs EC50): 477 | Timepoint at Peak Tregs ([3]; Ki67+ cells, mice, 0.8 mg/kg): 20 h | Timepoint at Peak Tregs ([3]; frequency within CD3+, mice, 0.8 mg/kg): 20 h | Tregs % of Ki67+ positive cells [3, 7]: 28.3 ± 3.7% | Tregs % of Tregs within CD3+ [3, 7]: 3.52 ± 0.4% | Tregs % of pSTAT5 positive cells ([3]; mice, 0.01 mg/kg): 81.0 ± 5.8% | Tregs % of pSTAT5 positive cells ([3]; mice, 0.03 mg/kg): 86.9 ± 5.2% | Tregs % of pSTAT5 positive cells ([3]; mice, 0.1 mg/kg): 91.1 ± 2.9% | Tregs % of pSTAT5 positive cells ([3]; mice, 0.3 mg/kg): 96.2 ± 1.3% | Tregs % of pSTAT5 positive cells ([3]; mice, 0.8 mg/kg): 93.3 ± 3.8% | Ratio Tregs/CD8+ ([3]; 0.01 mg/kg): 3.8 | Ratio Tregs/CD8+ ([3]; 0.03 mg/kg): 2.8 | Ratio Tregs/CD8+ ([3]; 0.1 mg/kg): 3.1 | Ratio Tregs/CD8+ ([3]; 0.3 mg/kg): 1.5 | Ratio Tregs/CD8+ ([3]; 0.8 mg/kg): 1.3 | CD8+ % of CD8+ within CD3+ (CD8+ Teff (CD3+, CD8+); 0.8 mg/kg, at peak time point): 32.1 ± 3^ % | CD8+ % of Ki67+ positive cells (CD8+ Teff (CD3+, CD8+); 0.8 mg/kg, at peak time point): 19.6 ± 3^ % | CD8+ % of pSTAT5 positive cells (CD8+ Teff (CD3+, CD8+); 0.01 mg/kg): 21.3 ± 6.7% | CD8+ % of pSTAT5 positive cells (CD8+ Teff (CD3+, CD8+); 0.03 mg/kg): 31.3 ± 6.2% | CD8+ % of pSTAT5 positive cells (CD8+ Teff (CD3+, CD8+); 0.1 mg/kg): 29.6 ± 4.4% | CD8+ % of pSTAT5 positive cells (CD8+ Teff (CD3+, CD8+); 0.3 mg/kg): 63.2 ± 9.0% | CD8+ % of pSTAT5 positive cells (CD8+ Teff (CD3+, CD8+); 0.8 mg/kg): 74.1 ± 11% | Timepoint at Peak Teff (CD8+ Teff (CD3+, CD8+); Ki67+ cells, 0.8 mg/kg): 48 h | Timepoint at Peak Teff (CD8+ Teff (CD3+, CD8+); frequency within CD3+, 0.8 mg/kg): 36 h | potency in inducing Treg cells versus Teff cells (in words) ([6]; pStat5 dose response curves): substantially more potent in inducing Treg cells than Teff cells
